Data on nine compounds can be found in ChEMBL document CHEMBL1811835, “Intramolecular ion-pair prodrugs of zanamivir and guanidino-oseltamivir” (Bioorg Med Chem, 2011).

Data set [1] can be described thus: Octanol-water distribution coefficient, log D of the compound at pH 7.4 at 100 ug/mL. The data set is classed as physicochemical.
Data set [2] is described as follows: Octanol-water distribution coefficient, log D of the compound at pH 6.5. The data set is classed as physicochemical.
For data set [3], the system named is Plasma. As to the kind of experiment: Stability in Sprague-Dawley rat plasma at 1 mM incubated for 24 hrs at 37 degC by MALDI-TOF mass spectrometry. Conditions: 1000 µM. The format is ADME, cell-free.
Data set [4] deals with Plasma. As to the kind of experiment: Stability in Sprague-Dawley rat plasma at 1 mM incubated for 24 hrs at 37 degC by LC-QTOF mass spectrometry. The data set is classed as ADME, cell-free. Conditions: 1000 µM.

For `O=C(O)c1ccc2ccccc2c1O` [CARBOXYNAPHTHOL], the logD (commonly the decadic logarithm of the distribution of all forms, ionised or not, between an organic phase and buffer at a given pH) in data set [1] (read-out: logD) came out at 0.16; in data set [2], 0.25.

`CCOC(=O)C1=C[C@@H](OC(CC)CC)[C@H](NC(C)=O)[C@@H](NC(=N)N)C1`: the logD in data set [1] (read-out: logD) is 0.31; in data set [2] it was -1.17.

For `CCOC(=O)C1=C[C@H](NC(=N)N)[C@@H](NC(C)=O)[C@H]([C@H](O)[C@H](O)CO)O1`, the logD in data set [1] (read-out: logD) was -0.28.

Take `CCC(CC)O[C@@H]1C=C(C(=O)O)C[C@H](NC(=N)N)[C@H]1NC(C)=O`: in data set [1], the log distribution coefficient (logD) is recorded as -0.13.

`CCC(CC)O[C@@H]1C=C(C(=O)O)C[C@H](N)[C@H]1NC(C)=O` [OSELTAMIVIR CARBOXYLATE]: the logD in data set [1] (read-out: logD) was -1.5.

Take `CC(=O)N[C@H]1[C@H]([C@H](O)[C@H](O)CO)OC(C(=O)OCCCOC(=O)c2ccc3ccccc3c2O)=C[C@@H]1NC(=N)N`: in data set [1] (read-out: logD), the logD is 0.75. Also, the Stability result in data set [3] and in data set [4] was “Stable” throughout.

With `CCC(CC)O[C@@H]1C=C(C(=O)OCCCOC(=O)c2ccc3ccccc3c2O)C[C@H](NC(=N)N)[C@H]1NC(C)=O`, the log distribution coefficient (logD) in data set [1] (read-out: logD) is 0.82.

With `CCCCCCCOC(=O)C1=C[C@H](NC(=N)N)[C@@H](NC(C)=O)[C@H]([C@H](O)[C@H](O)CO)O1` [ZANAMIVIR HEPTYL ESTER], the pH-dependent lipophilicity (logD) in data set [2] was -1.31.

Turning to `CC(=O)N[C@H]1[C@H]([C@H](O)[C@H](O)CO)OC(C(=O)O)=C[C@@H]1N=C(N)N` [ZANAMIVIR], the log distribution coefficient (logD) in data set [1] (read-out: logD) is -1.
